According to patent publication EP0831877B1, “METABOLIC EFFECTS OF CERTAIN GLUTATHIONE ANALOGS” (TELIK, INC., priority 1995, dated 1996):
Where “and” joins values, the source holds several entries; their conditions need not be identical. Equal entries are not always repeated. Where two headings read alike, the source gives them in different places. Marks after values point to notes of the source that are not given here. *1 amine or outer side, *2 acyl side, *3 side chain or, on linkers, in order; H or OH if unused. Where a SMILES comes first, the peptide text is derived from it. [ ]: non-standard residue; d: D form. The star is where a group is joined. γGlu = O=C(O)[C@H](CCC(=O)[*:2])N[*:1]; dPhg = N[C@@H](C(=O)O)c1ccccc1; Bn = c1ccc(C*)cc1

Columns and labels:
bone marrow GM-CFU [1] = assay: 5-fluorouracil-induced GM-CFU suppression in mice
Description: The control group was not treated with either drug. Bone marrows were harvested and GM-CFUs were determined 24 hours after the final injection.
Values are the mean ± SE of three mice per point.

Human GST P1-1 = Human GST P1-1 (Homo sapiens, UniProt P09211); assay: inhibition of GST isoenzyme P1-1 (Ki); assay type: biochemical; settings: for Rank order: rank of Ki for Human GST P1-1
Human GST P1-1, sequence (P09211 2-210 limits assumed): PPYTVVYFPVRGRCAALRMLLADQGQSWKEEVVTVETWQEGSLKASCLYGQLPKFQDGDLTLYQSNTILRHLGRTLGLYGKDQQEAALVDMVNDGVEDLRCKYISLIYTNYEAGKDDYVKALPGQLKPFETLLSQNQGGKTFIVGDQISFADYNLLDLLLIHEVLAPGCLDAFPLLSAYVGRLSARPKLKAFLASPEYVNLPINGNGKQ

[2] = test system: HT-29 (human colon adenocarcinoma) cells; assay: modified clonogenic assay, potentiation of chlorambucil cytotoxicity; assay type: cell-based; settings: chlorambucil, mean ±S.D. of 2-3 experiments; for DMF (dose modification factor), Parent Compound: dose tested 100 µM
Description: HT-29 (human colon adenocarcinoma) cells were obtained from Dr. Roberto Ceriani (Cancer Research Fund of Contra Costa County, Walnut Creek, CA) and were used in log phase of growth unless otherwise specified. Chlorambucil (CMB) was obtained from Sigma (St. Louis, MO) and was dissolved in 100% ethanol. All GST inhibitors were dissolved in ethanol, DMSO, or water just prior to use. The same amount of solvent added to culture medium served as the vehicle control.
In a modified clonogenic assay for cytotoxicity, cells were suspended at 2 x 10^5 cells/ml in serum-free medium in the presence of vehicle or inhibitor. […] Cells were incubated for 2 hours, then varying doses of CMB were added. At the end of a second 2-hour incubation, cells were diluted to 7.5-10 x 10^3/ml in serum-containing medium and plated in quadruplicate at 200 µl/well in Microtest III microtiter plates.
Plates were incubated for 6 days and assayed by a modified methylene blue method. Briefly, cells were fixed with 1.25% glutaraldehyde in PBS then stained with 0.05% methylene blue in distilled water. Plates were washed several times in distilled water to remove unretained dye and retained dye was resolubilized in 0.03 N HCl. Plates were read at 650 nm in a Molecular Devices Vmax plate reader (Molecular Devices, Redwood City, CA). […] A dose modification factor (DMF), a measure of potentiation of cytotoxicity, was calculated for each inhibitor by dividing the IC50 value of CMB without inhibitor treatment by the IC50 value for CMB with inhibitor treatment.

GST M1a-1a = biological target: T1, GST M1a-1a (Homo sapiens, UniProt P09488); assay: inhibition of GST isoenzyme M1a-1a (Ki); assay type: biochemical
T1 sequence (P09488 1-218): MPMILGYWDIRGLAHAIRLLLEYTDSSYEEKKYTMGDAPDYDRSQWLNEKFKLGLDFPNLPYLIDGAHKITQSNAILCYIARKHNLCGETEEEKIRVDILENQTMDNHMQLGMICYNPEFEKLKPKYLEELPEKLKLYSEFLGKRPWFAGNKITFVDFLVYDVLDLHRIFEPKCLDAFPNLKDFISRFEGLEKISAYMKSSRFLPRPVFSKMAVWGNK

[3] = test system: HT4-1, a subclone of HT-29; assay: standard clonogenic assay, potentiation of drug toxicity, HT4-1
Description: Four chemotherapeutic drugs, chlorambucil, adriamycin, mitomycin C and doxorubicin were used as the toxic agents. In these assays, the cells were seeded at 300 cells/well in 2 ml of medium in 6-well plates in the presence of the compounds used in the invention as the diethyl esters. […] After incubation for 1-2 hours to permit cells to attach, varying doses of the chemotherapeutic agents were added. At least three replicate wells were plated for each test condition and the plates were incubated for two weeks. […] IC50 values were determined for the chemotherapeutic agent in the presence or absence of the compound used in the invention and dose modification factors were calculated by dividing the IC50 value of drug without the compound by the IC50 value of the drug with the compound.

GST M2-2 = biological target: T2, GST M2-2 (Homo sapiens, UniProt P28161); assay: inhibition of GST isoenzyme M2-2 (Ki); assay type: biochemical; settings: determined on unesterified form
T2 sequence (P28161 1-218): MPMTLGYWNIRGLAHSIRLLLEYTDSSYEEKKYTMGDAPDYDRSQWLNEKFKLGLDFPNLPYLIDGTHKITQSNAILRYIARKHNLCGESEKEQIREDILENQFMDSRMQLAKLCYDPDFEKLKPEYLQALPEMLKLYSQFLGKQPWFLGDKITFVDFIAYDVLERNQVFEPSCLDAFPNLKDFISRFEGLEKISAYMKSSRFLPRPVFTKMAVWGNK

GST A1-1 = biological target: T3, GST A1-1 (Homo sapiens, UniProt P08263); assay: inhibition of GST isoenzyme A1-1 (Ki); assay type: biochemical
T3 sequence (P08263 1-222): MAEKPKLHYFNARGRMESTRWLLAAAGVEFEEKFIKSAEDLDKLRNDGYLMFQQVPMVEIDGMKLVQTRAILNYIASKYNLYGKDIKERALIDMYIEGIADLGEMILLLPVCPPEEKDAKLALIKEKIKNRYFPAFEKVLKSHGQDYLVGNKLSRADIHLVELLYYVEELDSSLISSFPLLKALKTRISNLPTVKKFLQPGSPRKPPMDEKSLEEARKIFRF

bone marrow GM-CFU [4] = assay: stimulation of bone marrow GM-CFU after administration to mice; assay type: in vivo, B6D2F1 mice; settings: bone marrow harvested 24 hours after administering
Description: In an illustrative assay three B6D2F1 mice were treated with various doses of benzyl PG intraperitoneally.
Mice in the control group were injected with water or saline. Bone marrow cells were harvested 24 hours after drug treatment and added to alpha minimum essential medium (alpha MEM) supplemented with methylcellulose (0.8% w/v), fetal bovine serum (20% v/v), deionized BSA (1% w/v), Pokeweed mitogen-stimulated spleen-cell conditioned medium (PWM-SCCM)^1 (10% v/v) and gentamycin (50 Tg/ml). One ml aliquots were plated (four replicate plates) and incubated for seven days at 37 °C. […] Spleens were removed aseptically from four male B6D2F1 mice enforced through a 200 Tm wire mesh screen to obtain a single cell suspension. Ten ml of the suspension (2-4 X 10^7 cell/ml was added to 90 ml alpha-MEM supplemented with 1% deionized BSA, 50 Tg/ml gentamicin, 0.3% freshly reconstituted pokeweed antigen, 10 µM 2-mercaptoethanol. The mixture was incubated for 5 days at […] in a 5% CO2 atmosphere and the result-ing conditioned medium was centrifuged at 800g for ten minutes and filtered through a 0.22 Tm filter. Aliquots were kept frozen at […] until use.
Bone marrow was harvested 24 hours after administering the compounds and GM-CFU levels measured as described above.

[5] = test system: VLB, a vinblastine-resistant variant of SKOV-3; assay: standard clonogenic assay, potentiation of drug toxicity, VLB; assay type: cell-based
Description: (§1) ; SKOV-3 an ovarian carcinoma, and VLB, a vinblastine-resistant variant of SKOV-3. Four chemotherapeutic drugs, chlorambucil, adriamycin, mitomycin C and doxorubicin were used as the toxic agents. In these assays, the cells were seeded at 300 cells/well in 2 ml of medium in 6-well plates in the presence of the compounds used in the invention as the diethyl esters. […]. After incubation for 1-2 hours to permit cells to attach, varying doses of the chemotherapeutic agents were added. At least three replicate wells were plated for each test condition and the plates were incubated for two weeks. Colonies were fixed in 95% ethanol and stained with crystal violet for colony counting. IC50 values were determined for the chemotherapeutic agent in the presence or absence of the compound used in the invention and dose modification factors were calculated by dividing the IC50 value of drug without the compound by the IC50 value of the drug with the compound.

[6] = test system: SKOV-3 an ovarian carcinoma; assay: standard clonogenic assay, potentiation of drug toxicity, SKOV-3; assay type: cell-based
Description: as §1

[7] = determined on unesterified form
[8] = HT4-1, TER199 at 25 µM, TER183 dose not given

SMILES: O=c1[nH]cc(F)c(=O)[nH]1 [5-FU, 5-fluorouracil, reference compound]
- GM-CFU (bone marrow GM-CFU [1]; 75 mg/kg 5-FU IP alone): 15 % of control
- GM-CFU (bone marrow GM-CFU [1]; 5-FU 75 mg/kg i.p. alone, harvest 48 hours): 47 % of control
- GM-CFU (bone marrow GM-CFU [1]; 5-FU 150 mg/kg i.p. alone, harvest 48 hours): 8 % of control
- GM-CFU by day 4 after 5-FU administration (Figure 9b) (bone marrow GM-CFU [1]; 5-FU only): approximately equal to control

SMILES: CCCCCCSC[C@H](NC(=O)CC[C@H](N)C(=O)O)C(=O)N[C@@H](C(=O)O)c1ccccc1 [TER102, γE-C(hexyl)-ϕG]
- specificity for GST P1-1 (Human GST P1-1; among TER117, TER102, TER211, TER143): reasonably specific
- Rank order (Human GST P1-1): 2
- DMF (dose modification factor), Parent Compound ([2]; HT-29): 1.1±0.02

SMILES: N[C@@H](CCC(=O)N[C@@H](CSCc1ccccc1)C(=O)N[C@@H](C(=O)O)c1ccccc1)C(=O)O [TER117, γE-C(Bz)-ϕG] (γGlu-Cys(Bn)-[dPhg]-OH)
- Ki (GST M1a-1a; [7]): 25000 nM
- Ki (Human GST P1-1; [7]): 400 nM
- survival of HT4-1 cells in the presence of the compound alone (Figure 1b) ([3]; HT4-1 cells): substantially no effect
- Ki (GST M2-2): 31000 nM
- DMF (dose modification factor), Parent Compound ([2]; HT-29): 1.08 and 1.08±0.01
- Ki (GST A1-1; [7]): 20000 nM
- effect on GM-CFU as a function of dosage, ester/amide forms (Figure 7) (bone marrow GM-CFU [4]): not effective

SMILES: CCCCCCCCSC[C@H](NC(=O)CC[C@H](N)C(=O)O)C(=O)NCC(=O)O [TER143, γE-C(octyl)-G]
- Rank order (Human GST P1-1): 4

SMILES: CCCCCCCCSC[C@H](NC(=O)CC[C@H](N)C(=O)OCC)C(=O)NCC(=O)OCC [TER143, γE-C(octyl)-G]
- Ki (GST M1a-1a): 1200 nM
- Ki (Human GST P1-1): 1900 nM
- Ki (GST A1-1): 270 nM

SMILES: CCCCCCCCSC[C@H](NC(=O)CC[C@H](N)C(=O)OCC)C(=O)NCC(=O)OCC [TER183, γE-C(octyl)-G diethyl ester]
- DMF for Adriamycin ([5]; TER199 at 25 µM, TER183 dose not given): 1.06
- DMF for Mitomycin C ([5]; test dose not given): 1.63
- DMF for Adriamycin ([6]; analog @5 uM): 1.24 (@5 uM)^c
- DMF for Chlorambucil ([6]; test dose not given): 1.03
- DMF for Adriamycin [3, 8]: 1.13
- DMF for Chlorambucil [3, 8]: 1.74
- DMF for Mitomycin C [3, 8]: 1.56
- DMF (dose modification factor), Diethyl ester ([2]; HT-29, dose tested 5 µM): 0.86±0.02
- DMF of DEE ([2]; diethyl ester): 0.864
